Test results from patent US20260207618A1, “PYRIMIDINE CARBOXAMIDE COMPOUNDS” (Acrivon Therapeutics, Inc., priority 2022, published 2026).

Legend:
[1] = target: T1, recombinant human Wee1A kinase (Homo sapiens, UniProt P30291); assay: LanthaScreen Europium (Eu) Kinase Binding Assay, Wee1A kinase (TR-FRET tracer displacement); conditions: 30 nM tracer 178, 5 nM Wee1A kinase, 60 minutes at room temperature
T1 construct: full length Wee1A kinase was expressed by baculovirus in insect cells; purchased Invitrogen PV3817; host or cells: insect cells (baculovirus)
Source text: We used a LanthaScreen Europium (Eu) Kinase Binding Assay to determine the binding of provided compounds to Wee1A kinase. The assay utilizes an Alexa Fluor 647-labeled ATP competitive kinase tracer that binds to the ATP binding site of a GST-tagged Wee1A kinase, while a europium (Eu) labeled antibody binds to the GST tag. The proximity of fluorescently labeled kinase tracer and europium (Eu) donor fluorophore antibody leads to fluorescence resonance energy transfer (FRET) to the fluorescence label (acceptor) upon excitation of the Eu (donor). Displacement of tracer from the ATP-binding site by a test compound disturbs the proximity between both labels thus lowering the FRET.
This time resolved-FRET binding assay was performed in white 384-well low volume plates (Greiner, cat #784075), at room temperature in kinase buffer A (KBA; Invitrogen cat #PV3189), consisting of 50 mM HEPES-NaOH (pH 7.5), 0.01% Brij-35, 10 mM MgCl2, and 1 mM EGTA. 5 μl of compound (diluted in reaction buffer, to 1% DMSO) were added to various wells in the plate, followed by 5 μl each of recombinant human Wee1A kinase (full length Wee1A kinase was expressed by baculovirus in insect cells using a N-terminal GST tag (MW: 99.1 kDa) (Invitrogen cat #PV3817) and LanthaScreen Eu-anti-GST antibody (Invitrogen, cat #PV5594). After this, 5 μl of kinase tracer 178 (Invitrogen, cat #PV5593) was added to the plate and the plate was incubated for 60 minutes at room temperature. The final assay conditions in each well were: 30 nM tracer 178, 5 nM Wee1A kinase and 2 nM Eu-labeled antibody in total assay volume of 15 μl. An Envision 2104 (Perkin-Elmer) Plate Reader with the following time-resolve fluorescence setting was used for performing LanthaScreen kinase binding assay. • Excitation 320 nm (30 nm bandpass) • Kinase Tracer Emission 665 nm (10 nm bandpass) • LanthaScreen Eu-anti-Tag Antibody Emission 615 nm (10 nm bandpass) • Dichroic Mirror Instrument dependent • Delay Time 100 μs • Integration Time 200 μs
To calculate the emission ratio, the acceptor/tracer emission ([…]) was divided by the antibody/donor emission ([…]) and the average of duplicate measurement was used for calculations. Data plotting, analysis of binding, and curve fitting was done using Excel add-in XLfit version 5.5.0.5 (IDBS, Guildford, United Kingdom).

[2] = system: Cdk1 phosphorylated on tyrosine 15; assay: High-content imaging of pCdk1 Y15 by immunofluorescence in ACHN cells; assay type: cell-based; conditions: Homo sapiens, high-content imaging (IF), 4 h, 7 to 5000 nM, read-out: CDK1 Tyr15 Phosphorylation EC50 (IC50)
Procedure: ACHN renal cell carcinoma cell line (ATCC) was cultured in Minimum Essential Medium Eagle supplemented with 10% fetal calf serum (Sigma), 1% Penicillin-Streptomycin and 10 mM HEPES buffer (HyClone). Cell cultures were kept in a humidified incubator at 37° C. and 5% CO2. Cells were routinely tested for Mycoplasma contamination.
High-content imaging of ACHN renal cell carcinoma cells was used for quantification of CDK1 phosphorylated on tyrosine 15 by immunofluorescence (“IF”). 20 000 cells per well were seeded in tissue culture treated 96 well plates and treated with compounds at concentrations ranging from 7 to 5000 nM for 4 h. Cells were fixated for 15 minutes in 4% paraformaldehyde solution, washed in PBS and permeabilized using 0.2% Triton X-100. Blocking was performed for 1 h at RT using Blocker FL Fluorescent Blocking Buffer (Thermo Scientific), thereafter cells were incubated with primary antibody (rabbit anti-pCDK1 Y^15, #4539, Cell Signaling Technology) at 4° C. ON. Alexa Fluor Plus 647 labelled goat anti-rabbit (A32733. Thermo Scientific) was used as secondary antibody. After washing in PBS, nuclei were stained with DAPI solution for 10 min at RT, protected from light. Cells were imaged using an ImageXpress Pico automated imaging system and CellReporter Xpress software (Molecular Devices). The percentage cells with nuclear positivity for pCdk1 Y^15 compared to DMSO control was determined for each well and drug dose response curves and EC50 values were calculated and visualized using GraphPad Prism.

T1 sequence (P30291 whole entry): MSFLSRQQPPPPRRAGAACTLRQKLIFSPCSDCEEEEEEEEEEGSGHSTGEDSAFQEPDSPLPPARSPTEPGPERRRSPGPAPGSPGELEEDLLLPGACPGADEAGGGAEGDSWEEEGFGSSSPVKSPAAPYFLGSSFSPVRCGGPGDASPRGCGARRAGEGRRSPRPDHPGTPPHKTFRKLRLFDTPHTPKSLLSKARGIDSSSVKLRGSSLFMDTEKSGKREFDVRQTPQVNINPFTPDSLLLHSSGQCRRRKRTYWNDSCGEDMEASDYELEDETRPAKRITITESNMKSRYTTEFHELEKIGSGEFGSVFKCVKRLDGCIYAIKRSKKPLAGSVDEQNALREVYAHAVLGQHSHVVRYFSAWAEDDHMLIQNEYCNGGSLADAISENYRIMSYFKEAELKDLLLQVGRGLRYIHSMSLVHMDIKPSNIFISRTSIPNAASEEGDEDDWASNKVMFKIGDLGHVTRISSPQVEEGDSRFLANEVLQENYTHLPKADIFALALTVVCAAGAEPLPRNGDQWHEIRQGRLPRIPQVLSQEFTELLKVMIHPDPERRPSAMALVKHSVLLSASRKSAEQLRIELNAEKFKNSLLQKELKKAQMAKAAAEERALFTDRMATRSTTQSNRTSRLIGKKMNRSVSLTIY

IC50 [1]	EC50 [2]	Compound	Wee1A kinase Binding IC50 [1]
≤ 10 nM		COc1nc(Nc2ccc([C@H]3CCCN(C)CC3)c(C)c2)ncc1C(=O)Nc1c(Cl)cccc1Br [Compound 208]	
10 to 100 nM		COc1nc(Nc2ccc(C3CCN(C)CC3)c(C)c2)ncc1C(=O)Nc1c(C)ccnc1C [Compound 112, N-(2,4-dimethylpyridin-3-yl)-4-methoxy-2-{[3-methyl-4-(1-methylpiperidin-4-yl)phenyl]amino}pyrimidine-5-carboxamide]	
≤ 10 nM	≤ 100 nM	COc1nc(Nc2ccc(O[C@@H]3CCN(C)C3)c(C)c2)ncc1C(=O)Nc1c(Cl)cccc1Cl [Compound 146, (R)—N-(2,6-dichlorophenyl)-4-methoxy-2-((3-methyl-4-((1-methylpyrrolidin-3-yl)oxy)phenyl)amino)pyrimidine-5-carboxamide]	
≤ 10 nM	100 to 500 nM	COc1nc(Nc2ccc(N3CCCNCC3)cc2)ncc1C(=O)Nc1c(Cl)cccc1Br [Compound 207, 2-((4-(1,4-diazepan-1-yl)phenyl)amino)-N-(2-bromo-6-chlorophenyl)-4-methoxypyrimidine-5-carboxamide]	
		COc1nc(Nc2ccc(C3CCN(C)CC3)c(C)c2)ncc1C(=O)Nc1cc([N+](=O)[O-])ccc1C [Compound 170]	C (IC50 greater than 100 nM but less than or equal to 5.00 nM)
10 to 100 nM		COc1nc(Nc2ccc(C3CCN(C)CC3)c(C)c2)ncc1C(=O)Nc1c(C)ccnc1Cl [Compound 117, N-(2-chloro-4-methylpyridin-3-yl)-4-methoxy-2-{[3-methyl-4-(1-methylpiperidin-4-yl)phenyl]amino}pyrimidine-5-carboxamide]	
≤ 10 nM	> 1000 nM	CN1CCN(c2ccc(Nc3ncc(C(=O)Nc4c(Cl)cccc4Cl)c(OCC4CCCO4)n3)cc2)CC1 (stereo not shown) [Compound 105]	
≤ 10 nM	100 to 500 nM	COc1nc(Nc2ccc(N3CCN(C)CC3)c(C)c2)ncc1C(=O)Nc1c(Cl)cccc1Cl [Compound 161]	
≤ 10 nM	100 to 500 nM	COc1nc(Nc2ccc(O[C@@H]3CCN(C)C3)c(C)c2)ncc1C(=O)Nc1c(Cl)cccc1Br [Compound 211]	
≤ 10 nM	100 to 500 nM	COc1nc(Nc2ccc(N3CCN(C)CCC3=O)cc2)ncc1C(=O)Nc1c(Cl)cccc1Cl [Compound 185, N-(2,6-dichlorophenyl)-4-methoxy-2-((4-(4-methyl-7-oxo-1,4-diazepan-1-yl)phenyl)amino)pyrimidine-5-carboxamide]	
≤ 10 nM	≤ 100 nM	COc1nc(Nc2ccc([C@@H]3CCN(C)C3)c(C)c2)ncc1C(=O)Nc1c(Cl)cccc1Br [Compound 193]	
≤ 10 nM	≤ 100 nM	COc1nc(Nc2ccc(O[C@@H]3CCN(C)C3)c(C)c2)ncc1C(=O)Nc1c(Cl)ccc(O)c1C [Compound 153, (R)—N-(6-chloro-3-hydroxy-2-methylphenyl)-4-methoxy-2-((3-methyl-4-((1-methylpyrrolidin-3-yl)oxy)phenyl)amino)pyrimidine-5-carboxamide]	
≤ 10 nM	100 to 500 nM	COc1nc(Nc2ccc(N3CCCN(C)CC3)cc2)ncc1C(=O)Nc1c(Cl)cccc1Br [Compound 206, N-(2-bromo-6-chlorophenyl)-4-methoxy-2-[p-(4-methyl-1,4-diazepan-1-yl)phenylamino]-5-pyrimidinecarboxamide]	
10 to 100 nM		COc1nc(Nc2ccc(C3CCN(C)CC3)c(C)c2)ncc1C(=O)Nc1ccccc1Cl [Compound 109, N-(2-chlorophenyl)-4-methoxy-2-((3-methyl-4-(1-methylpiperidin-4-yl)phenyl)amino)pyrimidine-5-carboxamide]	
10 to 100 nM		COc1nc(Nc2ccc(C3CCN(C)CC3)nc2)ncc1C(=O)Nc1c(Cl)cccc1Cl [Compound 183, N-2,6-dichlorophenyl-4-methoxy-2-[6-(1-methyl-4-piperidyl)-3-pyridylamino]-5-pyrimidinecarboxamide]	
10 to 100 nM		COc1nc(Nc2cnn(C[C@@H]3CCCN3)c2)ncc1C(=O)Nc1c(Cl)cccc1Cl [Compound 160]	
10 to 100 nM		COc1nc(Nc2cnn(C[C@H]3CCCN3)c2)ncc1C(=O)Nc1c(Cl)cccc1Cl [Compound 159]	
10 to 100 nM		COc1nc(Nc2ccc(C3CCN(C)CC3)c(C)c2)ncc1C(=O)Nc1ccccc1C#N [Compound 115, N-(2-cyanophenyl)-4-methoxy-2-((3-methyl-4-(1-methylpiperidin-4-yl)phenyl)amino)pyrimidine-5-carboxamide]	
10 to 100 nM		COc1nc(Nc2ccc(C(=O)N3CCN(C)CC3)c(C)c2)ncc1C(=O)Nc1c(Cl)cccc1Cl [Compound 168]	
		COc1nc(Nc2ccc(C3CCN(C)CC3)c(C)c2)ncc1C(=O)Nc1cc(NC(C)=O)ccc1C [Compound 169]	C (IC50 greater than 100 nM but less than or equal to 5.00 nM)
10 to 100 nM		COc1nc(Nc2ccc(-c3ccn(C)c3)c(C)c2)ncc1C(=O)Nc1c(Cl)cccc1Br [Compound 191, N-(2-bromo-6-chlorophenyl)-4-methoxy-2-((3-methyl-4-(1-methyl-1H-pyrrol-3-yl)phenyl)amino)pyrimidine-5-carboxamide]	
10 to 100 nM		CN1CCN(c2ccc(Nc3ncc(C(=O)Nc4c(Cl)cccc4Cl)c(OCC(F)(F)F)n3)cc2)CC1 [Compound 103, N-(2,6-dichlorophenyl)-2-{[4-(4-methylpiperazin-1-yl)phenyl]amino}-4-(2,2,2-trifluoroethoxy)pyrimidine-5-carboxamide]	
		COc1nc(Nc2ccc(C3CCN(C)CC3)c(C)c2)ncc1C(=O)Nc1cc(C#N)ccc1Cl [Compound 131, N-(2-chloro-5-cyanophenyl)-4-methoxy-2-((3-methyl-4-(1-methylpiperidin-4-yl)phenyl)amino)pyrimidine-5-carboxamide]	C (IC50 greater than 100 nM but less than or equal to 5.00 nM)
10 to 100 nM		COc1nc(Nc2ccc(C3CCN(C)CC3)c(C)c2)ncc1C(=O)Nc1cccc(O)c1 [Compound 118]	
	> 1000 nM	COc1nc(Nc2ccc(OCCN3CCOCC3)c(C)c2)ncc1C(=O)Nc1c(Cl)ccc(O)c1C [Compound 151, N-(6-chloro-3-hydroxy-2-methylphenyl)-4-methoxy-2-((3-methyl-4-(2-morpholinoethoxy)phenyl)amino)pyrimidine-5-carboxamide]	
10 to 100 nM		COc1nc(Nc2ccc(C3CCN(C)CC3)c(C)c2)ncc1C(=O)Nc1cnccc1Cl [Compound 139, N-(4-chloropyridin-3-yl)-4-methoxy-2-((3-methyl-4-(1-methylpiperidin-4-yl)phenyl)amino)pyrimidine-5-carboxamide]	
		CN(C)CCCOc1nc(Nc2ccc(N3CCN(C)CC3)cc2)ncc1C(=O)Nc1c(Cl)cccc1Cl [Compound 124, N-(2,6-dichlorophenyl)-4-(3-(dimethylamino)propoxy)-2-((4-(4-methylpiperazin-1-yl)phenyl)amino)pyrimidine-5-carboxamide]	C (IC50 greater than 100 nM but less than or equal to 5.00 nM)
10 to 100 nM		C#Cc1ccccc1NC(=O)c1cnc(Nc2ccc(C3CCN(C)CC3)c(C)c2)nc1OC [Compound 126, N-(2-ethynylphenyl)-4-methoxy-2-((3-methyl-4-(1-methylpiperidin-4-yl)phenyl)amino)pyrimidine-5-carboxamide]	
